Measured values as given in the NIST ThermoML archive (doi:10.1016/j.jct.2007.05.001).
± gives the expanded uncertainty stated by the source.

Test: refractive index (Na D-line) (dimensionless)
Details: 293.1 K; 101.33 kPa; Liquid; Standard Abbe refractometry

Structure (SMILES) | refractive index
Cc1cccc(C)c1 [1,3-dimethylbenzene] | 1.4943 ± 0.0008
O=CN1CCOCC1 [N-formylmorpholine] | 1.484 ± 0.0008
